Data taken from US8475850B2, “Methods and compositions for heavy metal detoxification” (priority 2007, dated 2013).
Like-named read-outs stand apart in the source and are kept apart here.

Tests used:
[1] = test system: GSTA1 and NQO1; conditions: for phase II gene expression increased over DMSO control: text summary of Table 7
[2] = test system: NQO1; assay: NADPH quinone oxido reductase (NQO1) activity assay in RL-34 cell lysate after treatment; format: cell-based, rat; conditions: RL-34 cell line
[3] = test system: GST; assay: GST activity assay in RL-34 cell lysate after treatment; format: cell-based, rat; conditions: RL-34 cell line
[4] = test system: HMOX1; conditions: for HMOX1 gene expression increased over DMSO control: text summary of Table 7
[5] = test system: metallothionein (hMT1&2 and hMT1&2alt); conditions: for MT gene expression increased over DMSO control: text summary of Table 7
[6] = test system: heme oxygenase (HO-1) promoter; assay: heme oxygenase (HO-1) luciferase reporter in the HepG2 cell line; conditions: thirty percent induction over DMSO control is considered as active
[7] = test system: Nrf-2; assay: Western blot of Nrf-2 in the nuclear fraction of HepG2 cells; format: cell-based, human; conditions: 4 hours, FIGS. 3 and 4
Protocol: The HepG2 cell line was cultured as above and test compounds were added for four hours, after which the cells were lysed and the nuclear fraction was isolated (Dignam, J. D., R. M. Lebovitz, and R. G. Roeder, Nucleic Acids Res, 11(5): 1475-89, 1983). Total protein concentration was determined using the Bicinchoninic Acid Kit (Sigma). […] (60 μg total protein) were electrophoresed and detection of Nrf-2 was performed using primary antibody incubation overnight at 4° C. (Santa Cruz Biotechnology, Inc, Santa Cruz, Calif.). Secondary antibody linked to horseradish peroxidase was incubated for one h (GE Healthcare, Piscataway, N.J.), after which proteins were visualized using the enhanced chemiluminescence (ECL) system. Densitometry was performed using Kodak Molecular Imaging Software v.4.0 (Eastman Kodak Company, Rochester, N.Y.) measuring the net intensity of the band.

## C=C1CC[C@@H]2[C@](C)(CO)[C@H](O)CC[C@@]2(C)[C@@H]1C/C=C1/C(=O)OC[C@H]1O [Andrographis, 3-(2-(Decahydro-6-hydroxy-5-(hydroxymethyl)-5,8a-dimethyl-2-methylenenaphthyl)ethylidene)dihydro-4-hydroxyfuran-2(3H)-one]
[1]; HepG2 cells
  phase II gene expression increased over DMSO control: ≥ 20%
[2]; 25 μg/ml
  NQO1 enzymatic activity induced over DMSO control: ≥ 20%
[3]; 25 μg/ml
  GST activity induced over DMSO control: ≥ 20%
[4]; HepG2 cells
  HMOX1 gene expression increased over DMSO control: ≥ 20%

## COc1ccc2cc3[n+](cc2c1OC)CCc1cc2c(cc1-3)OCO2 [Berberine]
[2]; 20 μg/ml
  NQO1 enzymatic activity induced over DMSO control: ≥ 20%

## O=c1c(-c2ccc(O)cc2)coc2cc(O)cc(O)c12 [Bonistein]
[2]; 20 μg/ml
  NQO1 enzymatic activity induced over DMSO control: ≥ 20%

## [Cl][Cd][Cl] [CdCl2]
[1]; HepG2 cells, 8 hours, 40 uM, average of GSTA1 and NQO1
  Phase II (ave) Ratio to DMSO: 0.94
[1]; HepG2 cells, controls
  phase II gene induction (in words): unable to increase
[5]; HepG2 cells, controls
  MT gene induction (in words): induce
[4]; HepG2 cells, controls
  HMOX1 gene induction (in words): induce

## COc1cc(C=CC(=O)CC(=O)C=Cc2ccc(O)c(OC)c2)ccc1O [Curcumin, 1,7-Bis(4-hydroxy-3-methoxyphenyl)hepta-1,6-diene-3,5-dione]
[1]; HepG2 cells
  phase II gene expression increased over DMSO control: ≥ 20%
[6]
  expression of heme oxygenase promoter activity (in words): induced
[2]; 5 μg/ml
  NQO1 enzymatic activity induced over DMSO control: ≥ 20%
[4]; HepG2 cells
  HMOX1 gene expression increased over DMSO control: ≥ 20%

## c1ccc2c(Cc3c[nH]c4ccccc34)c[nH]c2c1 [DIM]
[2]; 25 μg/ml
  NQO1 enzymatic activity induced over DMSO control: ≥ 20%

## OCc1c[nH]c2ccccc12 [I3C]
[2]; 25 μg/ml
  NQO1 enzymatic activity induced over DMSO control: ≥ 20%

## CC1(C)CC[C@]2(C(=O)O)CC[C@]3(C)C(=CC[C@@H]4[C@@]5(C)CC[C@H](O)C(C)(C)[C@@H]5CC[C@]43C)[C@@H]2C1 [Oleanolic acid]
[6]
  expression of heme oxygenase promoter activity (in words): induced
[2]; 25 μg/ml
  NQO1 enzymatic activity induced over DMSO control: ≥ 20%
[5]; HepG2 cells
  MT gene expression increased over DMSO control: ≥ 20%

## C=C1C(=O)O[C@H]2[C@H]1CC/C(C)=C/CC[C@@]1(C)O[C@@H]21 [Parthenolide]
[2]; 20 μg/ml
  NQO1 enzymatic activity induced over DMSO control: ≥ 20%

## O=c1c(O)c(-c2ccc(O)c(O)c2)oc2cc(O)cc(O)c12 [Quercitin]
[2]; 20 μg/ml
  NQO1 enzymatic activity induced over DMSO control: ≥ 20%

## Oc1ccc(C=Cc2cc(O)cc(O)c2)cc1 [Resveratrol]
[2]; 20 μg/ml
  NQO1 enzymatic activity induced over DMSO control: ≥ 20%

## C[S+]([O-])CCCCN=C=S (stereo not shown) [Sulforaphane]
[7]
  Nrf-2 nuclear translocation (in words): dramatic increase
[1]
  Phase II (ave) Ratio to DMSO: 1.64
  phase II gene induction (in words): increased
[6]
  expression of heme oxygenase promoter activity (in words): induced
[2]; 3 μg/ml
  NQO1 enzymatic activity induced over DMSO control: ≥ 20%
[5]
  MT 1.2 (ave) Ratio to DMSO: 0.87
  MT gene induction (in words): but not MT
[3]; 3 μg/ml
  GST activity induced over DMSO control: ≥ 20%
[4]
  HMOX1 gene induction (in words): increased

## O=c1oc2c(O)c3oc(=O)c4c5c(oc(=O)c6cc(O)c(O)c(O)c65)c(O)c5oc(=O)c(c2c2c(O)c(O)c(O)cc12)c3c54 [Terminalin]
[6]
  expression of heme oxygenase promoter activity (in words): induced

## COc1cc(O)c(CC=C(C)C)c(O)c1C(=O)/C=C/c1ccc(O)cc1 [Xanthohumol]
[6]
  expression of heme oxygenase promoter activity (in words): induced
[2]; 1 μg/ml
  NQO1 enzymatic activity induced over DMSO control: ≥ 20%
[5]; HepG2 cells
  MT gene expression increased over DMSO control: ≥ 20%
[3]; 1 μg/ml
  GST activity induced over DMSO control: ≥ 20%
[4]; HepG2 cells
  HMOX1 gene expression increased over DMSO control: ≥ 20%

## [Cl-].[Cl-].[Zn+2] [ZnCl2]
[1]; HepG2 cells, 8 hours, 10 μg/ml, average of GSTA1 and NQO1
  Phase II (ave) Ratio to DMSO: 0.94
[6]
  expression of heme oxygenase promoter activity (in words): induced

## O=C(/C=C/c1ccc(O)c(O)c1)O[C@@H]1C[C@](O)(C(=O)O)C[C@@H](O)[C@H]1O [chlorogenic acid]
[2]; 25 μg/ml
  NQO1 enzymatic activity induced over DMSO control: ≥ 20%
